From PubChem BioAssay AID1259321 (Sanford-Burnham Center for Chemical Genomics, 2017)
Calls of active or inactive are those of the source.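 How the source made its calls: active means half-maximal concentration for changing protein binding to DNA, from the fitted dose curve, below 10 micromolar; inactive means the rest.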

What follows are compounds tested against Nuclear receptor subfamily 1 group D member 1 (Homo sapiens) (UniProt P20393) (assay: Rev-erbα–DNA interaction modulators – biochemical, FITC-DNA, fluorescence polarization, dose response (AID 1259321)). Details: Rev-erb alpha-FITC-DNA binding.
Nuclear receptor subfamily 1 group D member 1 (Homo sapiens), sequence (P20393 whole entry, looked up): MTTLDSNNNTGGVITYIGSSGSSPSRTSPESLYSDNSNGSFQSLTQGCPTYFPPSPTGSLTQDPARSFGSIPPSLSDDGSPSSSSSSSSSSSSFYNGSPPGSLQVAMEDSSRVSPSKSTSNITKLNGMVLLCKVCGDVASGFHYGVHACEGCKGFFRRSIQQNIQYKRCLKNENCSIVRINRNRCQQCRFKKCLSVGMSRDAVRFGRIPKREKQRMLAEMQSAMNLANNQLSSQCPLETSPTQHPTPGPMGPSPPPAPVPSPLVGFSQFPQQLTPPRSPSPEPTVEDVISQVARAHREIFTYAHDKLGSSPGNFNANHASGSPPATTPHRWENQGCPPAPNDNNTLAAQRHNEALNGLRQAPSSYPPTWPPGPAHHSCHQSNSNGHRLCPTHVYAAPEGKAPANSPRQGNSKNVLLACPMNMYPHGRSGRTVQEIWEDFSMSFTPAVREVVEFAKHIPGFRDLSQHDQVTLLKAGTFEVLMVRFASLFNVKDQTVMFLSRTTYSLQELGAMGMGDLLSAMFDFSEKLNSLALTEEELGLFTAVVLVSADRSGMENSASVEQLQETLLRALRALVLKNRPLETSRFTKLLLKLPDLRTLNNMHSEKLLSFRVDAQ
With `Cc1cc(C(F)(F)F)c2c(N)c(C(=O)Nc3cc(C)on3)sc2n1` the IC50 was “inactive”. In the case of `COC(=O)c1ccc(Cn2ccc3ccc(-c4ccc5ccn(C(=O)c6cccc(OC)c6)c5c4)cc32)cc1`, the IC50 is reported as “inactive”. In the case of `COc1cc2c3nnc(-c4ccc(F)cc4)c-3cn(Cc3ccccc3)c2cc1OC`, the IC50 is reported as “inactive”. For `CN1C(=O)c2cc(NS(=O)(=O)c3ccc(F)cc3)ccc2OC[C@H]2O[C@@H](CC(=O)NCC(F)(F)F)CC[C@@H]21`, the IC50 was 1.62 µM. Work on `COc1ccc(Cc2nc3ccccc3n2CC(=O)N/N=C/c2ccc(C)cc2O)cc1OC` yielded an IC50 of 5.85 µM. `CCc1ccc(-c2nc(NC(=O)c3ccc(OCC(=O)Nc4ccc(F)cc4)c(OC)c3)sc2C)cc1` gave an IC50 of 9.3 µM. `Brc1ccc(-c2nn3c(-c4ccccc4)nnc3s2)cc1` was tested, and the IC50 was > 40 µM (inactive). Work on `N#Cc1ccc(Oc2ccc(-c3nc4ccccc4nc3-c3ccccc3)cc2)cc1C#N` yielded an IC50 of 4.49 µM. For `O=C(Nc1ccccc1C(F)(F)F)OCCN1C(=O)CCC12CCC(c1ccccc1)CC2` (stereo unspecified), the IC50 was 7.99 µM. `Brc1nc(-c2ccccc2)nc(-c2ccccc2)c1Br` was tested, and the IC50 was > 40 µM (inactive). `Nc1ccc2nc3c(=O)n(C4CCCCC4)c(=O)[nH]c3nc2c1` showed an IC50 of 6.28 µM. In the case of `COC(=O)c1ccccc1-c1c2ccc(=N)cc-2oc2cc(N)ccc12`, the IC50 is reported as > 40 µM (inactive). For `COc1ccc(-c2nc(-c3cccs3)c(-c3cccs3)[nH]2)cc1OC`, the IC50 was 5.77 µM. With `COc1cccc(-n2c([S-])c(C(=O)Nc3ccc(S(=O)(=O)N4CCOCC4)cc3)[n+]3cc(C(N)=O)ccc23)c1` the IC50 was > 40 µM (inactive). For `COc1ccc(S(=O)(=O)N2CCCCCC2)cc1C(=O)Nc1ccc(C)cn1`, the IC50 was > 40 µM (inactive). In the case of `COc1ccc(N2C(=O)c3cccc4c(N(C)CCO)ccc(c34)C2=O)cc1`, the IC50 is reported as “inactive”. `O=C(Nc1nc2ccsc2c(=O)s1)c1ccc(Cl)cc1` was tested, and the IC50 was 7.69 µM. For `CSc1ccc(CCNC(=O)c2cc(-c3ccccc3)c(N3CCOCC3)s2)cc1`, the IC50 was 2.74 µM. `CCc1ccc(-c2cc(C(F)(F)F)n3nc(C(=O)Nc4c(C)nn(Cc5ccccc5Cl)c4C)cc3n2)s1` was tested, and the IC50 was “inactive”. In the case of `CCCSc1nc(SCC(=O)NCc2ccccc2)c2c3c(sc2n1)COC(C)(CC)C3` (stereo unspecified), the IC50 is reported as > 40 µM (inactive). With `O=C1c2c(Br)c(Br)c(Br)c(Br)c2C(=O)N1c1ccccn1` the IC50 was 8.24 µM. `COc1ccc2c(c1)oc(=O)c1c3ccccc3[nH]c21` was tested, and the IC50 was > 40 µM (inactive). `CN(C)c1ccc(/C=C2\NC(=S)N(Cc3ccccc3)C2=O)cc1` was tested, and the IC50 was > 40 µM (inactive). `O=[N+]([O-])c1ccc(-c2nc(-c3cccs3)c(-c3cccs3)[nH]2)cc1` was tested, and the IC50 was “inactive”. `N=C1C(c2nc3ccccc3s2)=C(O)CN1NC(=O)c1c[nH]c2ccccc12` showed an IC50 of 4.45 µM. With `O=C(Cn1cc(C(F)(F)F)cc(Cl)c1=O)NCc1ccc(Cl)cc1Cl` the IC50 was “inactive”. `CCOc1ccc2nc(N/C(N)=N/C(=S)Nc3cccc(C)c3)nc(C)c2c1` showed an IC50 of 8.37 µM. For `Cc1c(C(=O)Nc2ccncc2)sc2nc(-c3ccc(F)cc3)cn12`, the IC50 was 3.76 µM. `CCOC(=O)c1ccc(CNC(=O)CSc2nc(NC(=O)c3ccccc3)c3c(C)c(C)oc3n2)cc1` was tested, and the IC50 was “inactive”. In the case of `CCOC(=O)c1cc(C(=O)OCC)c2cc(Br)ccc2n1`, the IC50 is reported as “inactive”. For `CCN(CC)C(=O)c1ccc(/C=C/c2c[nH]c3ccccc23)[n+](C)c1`, the IC50 was “inactive”. In the case of `Cc1onc(-c2ccccc2)c1C(=O)Nc1nc(-c2cc(F)ccc2F)cs1`, the IC50 is reported as 4.24 µM. `CCCCCC[n+]1ccccc1/C=C/c1ccc(N(C)C)cc1` was tested, and the IC50 was 7.24 µM. `CCSC1=N/C(=C\C=C2/Oc3ccccc3N2CC)C(=O)S1` was tested, and the IC50 was 9.41 µM. `CCCCCCc1cc2cc(C(=O)Nc3ccccc3)c(=O)oc2cc1O` was tested, and the IC50 was > 40 µM (inactive). In the case of `COc1ccc(-c2nn(C)c3sc(C(=O)NCc4ccco4)cc23)cc1OC`, the IC50 is reported as > 40 µM (inactive). `Cc1cccc2cc(C#N)c(SCC(=O)N3CCC(C)CC3)nc12` gave an IC50 of 1.26 µM. `C=CCn1c(SCC(=O)Nc2sccc2C#N)nc2sc(C)c(C)c2c1=O` was tested, and the IC50 was > 40 µM (inactive). For `O=C(CSc1nc2ccccc2c(=O)n1-c1ccc(F)cc1)Nc1cc(S(=O)(=O)N2CCOCC2)ccc1Cl`, the IC50 was > 40 µM (inactive). `COc1ccc(-c2nc(NC(=O)c3ccc(OCC(=O)Nc4ccc(F)cc4)c(OC)c3)sc2C)cc1` was tested, and the IC50 was > 40 µM (inactive). In the case of `Cc1ccc(OCC(=O)Nc2ccc(O)c(-c3nc4ccccc4o3)c2)cc1`, the IC50 is reported as > 40 µM (inactive). Compound `CC(=O)NC(=S)Nc1ccc2oc(-c3cc(F)c(F)cc3Cl)nc2c1` has an IC50 of 3.33 µM. In the case of `COC(=O)c1sc2nc(-c3ccccc3)c3c(c2c1N)CCCC3`, the IC50 is reported as “inactive”. `CCN1C(=O)/C(=C/c2ccc(N3CCCC3)cc2)NC1=S` was tested, and the IC50 was 1.14 µM. Work on `Cc1nn(C)c(C)c1NC(=O)CSc1nc(-c2ccccc2F)nc2c1cnn2-c1ccccc1` yielded an IC50 of 3.21 µM. In the case of `CCc1nnc(NS(=O)(=O)c2ccc(Nc3ccc([N+](=O)[O-])c4nonc34)cc2)s1`, the IC50 is reported as 9.46 µM. With `CC(=O)Oc1ccc(/C=N\NC(=O)c2cc3c(ccc4ccccc43)o2)cc1` the IC50 was “inactive”. In the case of `Cc1ccc2c(c1)c(/C=C/c1cc[n+](C)cc1)c(C)n2C`, the IC50 is reported as > 40 µM (inactive). `CCOC(=O)c1cccc2c(=O)c(C(=O)c3ccc(Cl)cc3)c(C(=O)OC)[nH]c12` was tested, and the IC50 was > 40 µM (inactive). Compound `COc1ccc2cc(C3CC(c4cccs4)=NN3C(C)=O)c(Cl)nc2c1` (stereo unspecified) has an IC50 of 2.88 µM. Compound `COc1ccc(C(=O)Nc2ccccc2C(=O)Nc2ccccc2)cc1` has an IC50 of 6.74 µM. For `COCCn1c(=NC(=O)c2ccco2)sc2cc(C(=O)OC)ccc21`, the IC50 was 4.87 µM. For `CN(C)C=Nc1nc2c(Br)ccc(Br)c2cc1C(=O)NCC(C)(C)C`, the IC50 was “inactive”. In the case of `O=C(CSc1nnc(-c2cccs2)o1)c1ccc2c(c1)OCO2`, the IC50 is reported as “inactive”. `COc1ccc(NC(=O)CSc2nc3ccccc3c(=O)n2-c2ccc3c(c2)OCO3)c(OC)c1` was tested, and the IC50 was > 40 µM (inactive). With `CCOC(=O)/C(C#N)=C/C=C1\C=Cc2ccccc2N1CC` the IC50 was > 40 µM (inactive). For `CN(C)c1ccc(N=Nc2ccccc2C(=O)OCC(=O)N2CCCCCC2)cc1`, the IC50 was “inactive”. In the case of `C=CCNC(=O)c1ccc(Cn2c(=S)[nH]c3cc4c(cc3c2=O)OCO4)cc1`, the IC50 is reported as “inactive”. Compound `Cc1cccc(Nc2nn3c(=O)c4ccccc4nc3s2)c1` has an IC50 of 4.11 µM. In the case of `Cc1ccc(NC(=O)c2sc(Cl)nc2-c2ccccc2)cc1C`, the IC50 is reported as “inactive”. With `COc1cc(/C=C2\SC(=O)N(CCNC(=O)c3sc4cc(F)ccc4c3Cl)C2=O)cc(OC)c1OC` the IC50 was 4.87 µM. `COc1ccc(/C=C2\SC(=O)N(CCC(=O)Nc3ccccc3)C2=O)cc1OC` was tested, and the IC50 was “inactive”. Compound `CN(C)c1ccc(N=Nc2ccccc2C(=O)OCC(=O)NCC2CCCCC2)cc1` has an IC50 of 7.85 µM. `Cc1cccc2cc(C#N)c(NCCNC(=O)NC3CCCCC3)nc12` was tested, and the IC50 was “inactive”. With `CCCN1C(=O)S/C(=C/c2ccc(N3CCOCC3)o2)C1=O` the IC50 was 5.84 µM. `Cc1ccc(-n2nc3c(N4CCC(C(=O)NCCc5cccs5)CC4)nnc(C)c3c2C)cc1` showed an IC50 of 6.89 µM. In the case of `CCN(CC)S(=O)(=O)c1ccc(N2CCCCC2)c(NC(=O)C2CSC3(C)CCC(=O)N23)c1` (stereo unspecified), the IC50 is reported as “inactive”. Compound `COc1ccc2c(c1)c(=O)oc1cc(OCC(=O)NC3CC3)ccc12` has an IC50 of 6.09 µM. In the case of `CCCC1(c2ccccc2)NC(=O)N(CC(=O)Nc2sc(-c3ccccc3)cc2C(=O)OCC)C1=O` (stereo unspecified), the IC50 is reported as “inactive”. For `Cc1ccc(-c2cc(C(F)F)nc3sc4c(=O)[nH]cnc4c23)cc1`, the IC50 was 6.05 µM. For `CSc1ccc(SC2CN(Cc3ccc(C)cc3)S(=O)(=O)C2)cc1` (stereo unspecified), the IC50 was “inactive”. In the case of `Cc1cccc2cc(C#N)c(SCC(=O)Nc3ccccc3N3CCOCC3)nc12`, the IC50 is reported as “inactive”. With `CCOc1ccc2nc(N=Nc3c(O)[nH]c(=S)[nH]c3=O)sc2c1` the IC50 was > 40 µM (inactive). With `Cc1ccc(S(=O)(=O)c2nc(Nc3ccccc3C#N)sc2Cl)cc1` the IC50 was “inactive”. `COC(=O)Cn1c(=NC(=O)c2ccc(OC)c(OC)c2)sc2cc(OC)ccc21` was tested, and the IC50 was > 40 µM (inactive). For `Fc1ccc2nc(Nc3nc4cc5c(cc4s3)OCCO5)sc2c1`, the IC50 was 6.87 µM. In the case of `COc1ccc(C(=O)Nc2ccc(C(F)(F)F)n(C)c2=O)cc1`, the IC50 is reported as > 40 µM (inactive). For `COc1ccc(NC(=O)COC(=O)c2ccc3c(c2)OCO3)c(OC)c1`, the IC50 was > 40 µM (inactive). In the case of `Cc1cccc2cc(C#N)c(SCC(=O)N3CC(=O)Nc4ccccc43)nc12`, the IC50 is reported as “inactive”. `N#C/C(=C(/O)C(Cl)c1ccccc1)c1nc2ccccc2s1` (stereo unspecified) gave an IC50 of 5.7 µM. For `Cc1ccc(S(=O)(=O)c2c[nH]c3ccc(Cl)cc3c2=O)cc1`, the IC50 was > 40 µM (inactive). For `Cn1c(N)c(C(=O)CSc2nn(-c3ccc(F)cc3)c(=S)s2)c(=O)n(C)c1=O`, the IC50 was > 40 µM (inactive). `COc1ccc(-c2cc(C(F)(F)F)c(C#N)c(SCC(=O)Nc3nc(C)co3)n2)cc1` was tested, and the IC50 was 3.59 µM. With `Nc1ccc2c3c(cccc13)C(=O)N(c1ccccc1)C2=O` the IC50 was “inactive”. With `O=C1/C(=C\c2cc(Cl)c(O)c(Cl)c2)SC(=S)N1Cc1ccccc1` the IC50 was > 40 µM (inactive). `Cc1cc(NC(=O)CSc2nc3cc(C)c(C)cc3cc2C)no1` was tested, and the IC50 was > 40 µM (inactive). `Cc1oc2cc3oc(=O)c4c(c3cc2c1C)CCC4` was tested, and the IC50 was > 40 µM (inactive). For `COc1ccccc1C(=O)Nc1nnc(-c2ccc(F)cc2)s1`, the IC50 was 3.13 µM. `O=[N+]([O-])c1ccc(N2CCCCCC2)c2nonc12` was tested, and the IC50 was > 40 µM (inactive). For `O=C(CCCn1c(=S)[nH]c2cc3c(cc2c1=O)OCO3)NCc1ccccc1Cl`, the IC50 was “inactive”. In the case of `N#Cc1c(N)nc(N2CCCC2)c(C#N)c1-c1ccc(Cl)cc1`, the IC50 is reported as 4.99 µM. `Cc1ccc(-c2nc(NC(=O)CSc3cc(C)c4ccccc4n3)ns2)cc1` gave an IC50 of 1.91 µM. `COc1ccc(Cn2ccc3ccc(-c4ccc5ccn(C(=O)c6ccccc6OC)c5c4)cc32)cc1` was tested, and the IC50 was > 40 µM (inactive). For `COc1ccc(C(C)=O)cc1CSc1nc2ccccc2c(=O)n1-c1ccccc1`, the IC50 was > 40 µM (inactive). For `COc1ccc(-c2ccc(-c3noc(-c4ccccc4F)n3)c(OC)n2)cc1`, the IC50 was 1.33 µM. With `CN(C)/C=C1\C=C2C(=O)c3ccccc3N2C1=O` the IC50 was 0.714 µM. Compound `N#CC(C#N)=C1C=C2C=C(N3CCCCCC3)CCC2CC1` (stereo unspecified) has an IC50 of 4.8 µM. Compound `O=[N+]([O-])c1ccc(N(c2ccccc2)c2ccccc2)cc1` has an IC50 of 4.62 µM. With `CN(C)c1nc(-c2cccnc2)nc(-c2ccccc2)c1C#N` the IC50 was “inactive”. For `O=C(O)c1ccccc1C(c1ccccc1)c1ccccc1O` (stereo unspecified), the IC50 was “inactive”. With `CCCOc1ccc(/C(CC)=N/NC(=O)C2(C)CC2(Br)Br)cc1` (stereo unspecified) the IC50 was “inactive”.
